Assay results from the supplement of paper PMC4862054.

System: CAL-51
Assay: normalised response (% of control), CellTiter-Glo; higher = more viable cells (100 = DMSO, 0 = benzethonium chloride kill control)
Details: incubation time: 72 h
Procedure, shortened: (§1)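 Normalised signals at single concentrations make up the values. They come from breast cancer cell lines seeded (20 µl suspension) into 384-well plates with compound at 5 concentrations in 10-fold steps over a compound-specific 10,000-fold range, incubated 72 h, and read for CellTox Green fluorescence then CellTiter-Glo luminescence. Each plate was normalised to 0.1 % DMSO (100) and a positive kill control (0).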

Row | SMILES | normalised response
1 | O=C(NC[C@H](O)CO)c1ccncc1Nc1ccc(I)cc1F [Pimasertib] (1000 nM) | 73%
2 | Cn1cc(CNCC2CCN(c3ncc(C(=O)NO)cn3)CC2)c2ccccc21 [Quisinostat] (100 nM) | 40.5%

System: MDA-MB-231
Assay: as above
Details: incubation time: 72 h
Procedure, shortened: as §1

Row | SMILES | normalised response
3 | CC/C(=C(\c1ccc(O)cc1)c1ccc(OCCN(C)C)cc1)c1ccccc1 [4-hydroxytamoxifen] (1000 nM) | 97%
4 | O=C(Nc1c[nH]nc1-c1nc2ccc(CN3CCOCC3)cc2[nH]1)NC1CC1 [AT9283] (100 nM) | 78.8%
5 | CC(=O)OC[C@H]1O[C@@H]([S-])[C@H](OC(C)=O)[C@@H](OC(C)=O)[C@@H]1OC(C)=O.CCP(CC)CC.[Au+] [Auranofin] (250 nM) | 101%
6 | O=S(=O)(c1cccc2cnccc12)N1CCCNCC1 [Fasudil] (5000 nM) | 106%
7 | Cc1cccc(-c2nn3c(c2-c2ccnc4ccc(C(N)=O)cc24)CCC3)n1 [Galunisertib] (100 nM) | 108%
8 | O=C(NC[C@H](O)CO)c1ccncc1Nc1ccc(I)cc1F [Pimasertib] (1000 nM) | 72.1%
9 | Cn1cc(CNCC2CCN(c3ncc(C(=O)NO)cn3)CC2)c2ccccc21 [Quisinostat] (100 nM) | 30%

System: MDA-MB-453
Assay: as above
Details: incubation time: 72 h
Procedure, shortened: as §1

Row | SMILES | normalised response
10 | CC/C(=C(\c1ccc(O)cc1)c1ccc(OCCN(C)C)cc1)c1ccccc1 [4-hydroxytamoxifen] (1000 nM) | 102%
11 | O=C(Nc1c[nH]nc1-c1nc2ccc(CN3CCOCC3)cc2[nH]1)NC1CC1 [AT9283] (100 nM) | 141%
12 | CC(=O)OC[C@H]1O[C@@H]([S-])[C@H](OC(C)=O)[C@@H](OC(C)=O)[C@@H]1OC(C)=O.CCP(CC)CC.[Au+] [Auranofin] (250 nM) | 90.7%
13 | O=S(=O)(c1cccc2cnccc12)N1CCCNCC1 [Fasudil] (5000 nM) | 95.7%
14 | Cc1cccc(-c2nn3c(c2-c2ccnc4ccc(C(N)=O)cc24)CCC3)n1 [Galunisertib] (100 nM) | 105%
15 | O=C(NC[C@H](O)CO)c1ccncc1Nc1ccc(I)cc1F [Pimasertib] (1000 nM) | 105%
16 | Cn1cc(CNCC2CCN(c3ncc(C(=O)NO)cn3)CC2)c2ccccc21 [Quisinostat] (100 nM) | 2.02%

System: Hs578T
Assay: as above
Details: incubation time: 72 h
Procedure, shortened: as §1

Row | SMILES | normalised response
17 | CC/C(=C(\c1ccc(O)cc1)c1ccc(OCCN(C)C)cc1)c1ccccc1 [4-hydroxytamoxifen] (1000 nM) | 107%
18 | O=C(Nc1c[nH]nc1-c1nc2ccc(CN3CCOCC3)cc2[nH]1)NC1CC1 [AT9283] (100 nM) | 88.8%
19 | CC(=O)OC[C@H]1O[C@@H]([S-])[C@H](OC(C)=O)[C@@H](OC(C)=O)[C@@H]1OC(C)=O.CCP(CC)CC.[Au+] [Auranofin] (250 nM) | 97.4%
20 | O=S(=O)(c1cccc2cnccc12)N1CCCNCC1 [Fasudil] (5000 nM) | 99.7%
21 | Cc1cccc(-c2nn3c(c2-c2ccnc4ccc(C(N)=O)cc24)CCC3)n1 [Galunisertib] (100 nM) | 91.6%
22 | O=C(NC[C@H](O)CO)c1ccncc1Nc1ccc(I)cc1F [Pimasertib] (1000 nM) | 86.2%
23 | Cn1cc(CNCC2CCN(c3ncc(C(=O)NO)cn3)CC2)c2ccccc21 [Quisinostat] (100 nM) | 37.2%

System: MDA-MB-436
Assay: as above
Details: incubation time: 72 h
Procedure, shortened: as §1

Row | SMILES | normalised response
24 | CC/C(=C(\c1ccc(O)cc1)c1ccc(OCCN(C)C)cc1)c1ccccc1 [4-hydroxytamoxifen] (1000 nM) | 101%
25 | O=C(Nc1c[nH]nc1-c1nc2ccc(CN3CCOCC3)cc2[nH]1)NC1CC1 [AT9283] (100 nM) | 99%
26 | CC(=O)OC[C@H]1O[C@@H]([S-])[C@H](OC(C)=O)[C@@H](OC(C)=O)[C@@H]1OC(C)=O.CCP(CC)CC.[Au+] [Auranofin] (250 nM) | 90.7%
27 | O=S(=O)(c1cccc2cnccc12)N1CCCNCC1 [Fasudil] (5000 nM) | 113%
28 | Cc1cccc(-c2nn3c(c2-c2ccnc4ccc(C(N)=O)cc24)CCC3)n1 [Galunisertib] (100 nM) | 110%
29 | O=C(NC[C@H](O)CO)c1ccncc1Nc1ccc(I)cc1F [Pimasertib] (1000 nM) | 95.5%
30 | Cn1cc(CNCC2CCN(c3ncc(C(=O)NO)cn3)CC2)c2ccccc21 [Quisinostat] (100 nM) | 55.3%

System: DU-4475
Assay: as above
Details: incubation time: 72 h
Procedure, shortened: as §1

Row | SMILES | normalised response
31 | CC/C(=C(\c1ccc(O)cc1)c1ccc(OCCN(C)C)cc1)c1ccccc1 [4-hydroxytamoxifen] (1000 nM) | 98.5%
32 | O=C(Nc1c[nH]nc1-c1nc2ccc(CN3CCOCC3)cc2[nH]1)NC1CC1 [AT9283] (100 nM) | 88.9%
